ChEMBL document CHEMBL4002605, “Synthesis, identification and in vitro biological evaluation of some novel quinoline incorporated 1,3-thiazinan-4-one derivatives” (Bioorg Med Chem Lett, 2017)
≈ marks a conversion by molar mass, not a printed value.

Tests used:
Bacillus subtilis = assay: Antibacterial activity against Bacillus subtilis MTCC 441 by broth microdilution assay method; type: functional
Salmonella typhi = assay: Antibacterial activity against Salmonella typhi MTCC 98 by broth microdilution assay method; type: functional, Salmonella enterica subsp. enterica serovar Typhi; conditions: Salmonella enterica
Plasmodium falciparum = assay: Antimalarial activity against Plasmodium falciparum; type: functional
Clostridium tetani = assay: Antibacterial activity against Clostridium tetani MTCC 449 by broth microdilution assay method; type: functional
Escherichia coli = assay: Antibacterial activity against Escherichia coli MTCC 443 by broth microdilution assay method; type: functional
Vibrio cholerae = assay: Antibacterial activity against Vibrio cholerae MTCC 3906 by broth microdilution assay method; type: functional
Streptococcus pneumoniae = assay: Antibacterial activity against Streptococcus pneumoniae MTCC 1936 by broth microdilution assay method; type: functional
[1] = tested on: Mycobacterium tuberculosis; assay: Antitubercular activity against Mycobacterium tuberculosis H37Rv at 6 ug/mL; type: functional

Structure (SMILES): O=C1CCSC(c2ccc(Cl)cc2)N1CCNc1ccnc2cc(Cl)ccc12 (centres undefined)
- MIC (Bacillus subtilis): 62.5 µg/mL (≈ 145 µM)
- MIC (Salmonella typhi): 250 µg/mL (≈ 578 µM)
- IC50 (Plasmodium falciparum): 0.098 µg/mL (≈ 0.227 µM)
- MIC (Clostridium tetani): 62.5 µg/mL (≈ 145 µM)
- MIC (Escherichia coli): 125 µg/mL (≈ 289 µM)
- MIC (Vibrio cholerae): 125 µg/mL (≈ 289 µM)
- MIC (Streptococcus pneumoniae): 125 µg/mL (≈ 289 µM)
- inhibition at 6 µg/mL [1]: 73%

Structure (SMILES): COc1ccc(C2SCCC(=O)N2CCNc2ccnc3cc(Cl)ccc23)cc1 (centres undefined)
- MIC (Bacillus subtilis): 250 µg/mL (≈ 584 µM)
- MIC (Salmonella typhi): 250 µg/mL (≈ 584 µM)
- IC50 (Plasmodium falciparum): 0.62 µg/mL (≈ 1.45 µM)
- MIC (Clostridium tetani): 125 µg/mL (≈ 292 µM)
- MIC (Escherichia coli): 125 µg/mL (≈ 292 µM)
- MIC (Vibrio cholerae): 250 µg/mL (≈ 584 µM)
- MIC (Streptococcus pneumoniae): 250 µg/mL (≈ 584 µM)
- inhibition at 6 µg/mL [1]: 60%

Structure (SMILES): COc1cccc(C2SCCC(=O)N2NC(=O)c2cnc3c(C(F)(F)F)cccc3c2O)c1 (centres undefined)
- MIC (Bacillus subtilis): 250 µg/mL (≈ 524 µM)
- MIC (Salmonella typhi): 250 µg/mL (≈ 524 µM)
- IC50 (Plasmodium falciparum): 1.7 µg/mL (≈ 3.56 µM)
- MIC (Clostridium tetani): 500 µg/mL (≈ 1050 µM)
- MIC (Escherichia coli): 250 µg/mL (≈ 524 µM)
- MIC (Vibrio cholerae): 250 µg/mL (≈ 524 µM)
- MIC (Streptococcus pneumoniae): 500 µg/mL (≈ 1050 µM)
- inhibition at 6 µg/mL [1]: 65%

Structure (SMILES): Cc1ccc(C2SCCC(=O)N2CCNc2ccnc3cc(Cl)ccc23)cc1 (centres undefined)
- MIC (Bacillus subtilis): 250 µg/mL (≈ 607 µM)
- MIC (Salmonella typhi): 500 µg/mL (≈ 1210 µM)
- IC50 (Plasmodium falciparum): 1.97 µg/mL (≈ 4.78 µM)
- MIC (Clostridium tetani): 250 µg/mL (≈ 607 µM)
- MIC (Escherichia coli): 250 µg/mL (≈ 607 µM)
- MIC (Vibrio cholerae): 250 µg/mL (≈ 607 µM)
- MIC (Streptococcus pneumoniae): 500 µg/mL (≈ 1210 µM)
- inhibition at 6 µg/mL [1]: 57%

Structure (SMILES): Cc1ccc(C2SCCC(=O)N2NC(=O)c2cnc3c(C(F)(F)F)cccc3c2O)cc1 (centres undefined)
- MIC (Bacillus subtilis): 250 µg/mL (≈ 542 µM)
- MIC (Salmonella typhi): 250 µg/mL (≈ 542 µM)
- IC50 (Plasmodium falciparum): 1.56 µg/mL (≈ 3.38 µM)
- MIC (Clostridium tetani): 250 µg/mL (≈ 542 µM)
- MIC (Escherichia coli): 500 µg/mL (≈ 1080 µM)
- MIC (Vibrio cholerae): 500 µg/mL (≈ 1080 µM)
- MIC (Streptococcus pneumoniae): 500 µg/mL (≈ 1080 µM)
- inhibition at 6 µg/mL [1]: 60%

Structure (SMILES): O=C1CCSC(c2ccc(O)cc2)N1CCNc1ccnc2cc(Cl)ccc12 (centres undefined)
- MIC (Bacillus subtilis): 62.5 µg/mL (≈ 151 µM)
- MIC (Salmonella typhi): 250 µg/mL (≈ 604 µM)
- IC50 (Plasmodium falciparum): 1.78 µg/mL (≈ 4.3 µM)
- MIC (Clostridium tetani): 250 µg/mL (≈ 604 µM)
- MIC (Escherichia coli): 500 µg/mL (≈ 1210 µM)
- MIC (Vibrio cholerae): 250 µg/mL (≈ 604 µM)
- MIC (Streptococcus pneumoniae): 250 µg/mL (≈ 604 µM)
- inhibition at 6 µg/mL [1]: 74%

Structure (SMILES): O=C(NN1C(=O)CCSC1c1ccc(F)cc1)c1cnc2c(C(F)(F)F)cccc2c1O (centres undefined)
- MIC (Bacillus subtilis): 31.2 µg/mL (≈ 67.1 µM)
- MIC (Salmonella typhi): 250 µg/mL (≈ 537 µM)
- IC50 (Plasmodium falciparum): 0.052 µg/mL (≈ 0.112 µM)
- MIC (Clostridium tetani): 15.6 µg/mL (≈ 33.5 µM)
- MIC (Escherichia coli): 125 µg/mL (≈ 269 µM)
- MIC (Vibrio cholerae): 125 µg/mL (≈ 269 µM)
- MIC (Streptococcus pneumoniae): 125 µg/mL (≈ 269 µM)
- inhibition at 6 µg/mL [1]: 92%

Structure (SMILES): O=C(NN1C(=O)CCSC1c1cccc(F)c1)c1cnc2c(C(F)(F)F)cccc2c1O (centres undefined)
- MIC (Bacillus subtilis): 125 µg/mL (≈ 269 µM)
- MIC (Salmonella typhi): 250 µg/mL (≈ 537 µM)
- IC50 (Plasmodium falciparum): 0.91 µg/mL (≈ 1.96 µM)
- MIC (Clostridium tetani): 125 µg/mL (≈ 269 µM)
- MIC (Escherichia coli): 125 µg/mL (≈ 269 µM)
- MIC (Vibrio cholerae): 125 µg/mL (≈ 269 µM)
- MIC (Streptococcus pneumoniae): 250 µg/mL (≈ 537 µM)
- inhibition at 6 µg/mL [1]: 73%

Structure (SMILES): O=C1CCSC(c2ccc(F)cc2)N1CCNc1ccnc2cc(Cl)ccc12 (centres undefined)
- MIC (Bacillus subtilis): 62.5 µg/mL (≈ 150 µM)
- MIC (Salmonella typhi): 62.5 µg/mL (≈ 150 µM)
- IC50 (Plasmodium falciparum): 0.081 µg/mL (≈ 0.195 µM)
- MIC (Clostridium tetani): 15.6 µg/mL (≈ 37.5 µM)
- MIC (Escherichia coli): 62.5 µg/mL (≈ 150 µM)
- MIC (Vibrio cholerae): 125 µg/mL (≈ 301 µM)
- MIC (Streptococcus pneumoniae): 62.5 µg/mL (≈ 150 µM)
- inhibition at 6 µg/mL [1]: 80%

Structure (SMILES): COc1ccc(C2SCCC(=O)N2NC(=O)c2cnc3c(C(F)(F)F)cccc3c2O)cc1 (centres undefined)
- MIC (Bacillus subtilis): 125 µg/mL (≈ 262 µM)
- MIC (Salmonella typhi): 125 µg/mL (≈ 262 µM)
- IC50 (Plasmodium falciparum): 1.45 µg/mL (≈ 3.04 µM)
- MIC (Clostridium tetani): 250 µg/mL (≈ 524 µM)
- MIC (Escherichia coli): 250 µg/mL (≈ 524 µM)
- MIC (Vibrio cholerae): 250 µg/mL (≈ 524 µM)
- MIC (Streptococcus pneumoniae): 250 µg/mL (≈ 524 µM)
- inhibition at 6 µg/mL [1]: 70%

Structure (SMILES): O=C(NN1C(=O)CCSC1c1ccc(O)cc1)c1cnc2c(C(F)(F)F)cccc2c1O (centres undefined)
- MIC (Bacillus subtilis): 125 µg/mL (≈ 270 µM)
- MIC (Salmonella typhi): 125 µg/mL (≈ 270 µM)
- IC50 (Plasmodium falciparum): 1.58 µg/mL (≈ 3.41 µM)
- MIC (Clostridium tetani): 250 µg/mL (≈ 539 µM)
- MIC (Escherichia coli): 250 µg/mL (≈ 539 µM)
- MIC (Vibrio cholerae): 125 µg/mL (≈ 270 µM)
- MIC (Streptococcus pneumoniae): 250 µg/mL (≈ 539 µM)
- inhibition at 6 µg/mL [1]: 79%

Structure (SMILES): O=C(NN1C(=O)CCSC1c1ccccc1)c1cnc2c(C(F)(F)F)cccc2c1O (centres undefined)
- MIC (Bacillus subtilis): 250 µg/mL (≈ 559 µM)
- MIC (Salmonella typhi): 500 µg/mL (≈ 1120 µM)
- IC50 (Plasmodium falciparum): 2.1 µg/mL (≈ 4.69 µM)
- MIC (Clostridium tetani): 500 µg/mL (≈ 1120 µM)
- MIC (Escherichia coli): 500 µg/mL (≈ 1120 µM)
- MIC (Vibrio cholerae): 500 µg/mL (≈ 1120 µM)
- MIC (Streptococcus pneumoniae): 500 µg/mL (≈ 1120 µM)
- inhibition at 6 µg/mL [1]: 55%

Structure (SMILES): COc1cccc(C2SCCC(=O)N2CCNc2ccnc3cc(Cl)ccc23)c1 (centres undefined)
- MIC (Bacillus subtilis): 62.5 µg/mL (≈ 146 µM)
- MIC (Salmonella typhi): 500 µg/mL (≈ 1170 µM)
- IC50 (Plasmodium falciparum): 1.89 µg/mL (≈ 4.42 µM)
- MIC (Clostridium tetani): 250 µg/mL (≈ 584 µM)
- MIC (Escherichia coli): 250 µg/mL (≈ 584 µM)
- MIC (Vibrio cholerae): 500 µg/mL (≈ 1170 µM)
- MIC (Streptococcus pneumoniae): 250 µg/mL (≈ 584 µM)
- inhibition at 6 µg/mL [1]: 58%

Structure (SMILES): O=C1CCSC(c2ccccc2)N1CCNc1ccnc2cc(Cl)ccc12 (centres undefined)
- MIC (Bacillus subtilis): 250 µg/mL (≈ 628 µM)
- MIC (Salmonella typhi): 500 µg/mL (≈ 1260 µM)
- IC50 (Plasmodium falciparum): 2.7 µg/mL (≈ 6.79 µM)
- MIC (Clostridium tetani): 250 µg/mL (≈ 628 µM)
- MIC (Escherichia coli): 500 µg/mL (≈ 1260 µM)
- MIC (Vibrio cholerae): 250 µg/mL (≈ 628 µM)
- MIC (Streptococcus pneumoniae): 500 µg/mL (≈ 1260 µM)
- inhibition at 6 µg/mL [1]: 50%

Structure (SMILES): O=C1CCSC(c2ccc(Br)cc2)N1CCNc1ccnc2cc(Cl)ccc12 (centres undefined)
- MIC (Bacillus subtilis): 31.2 µg/mL (≈ 65.5 µM)
- MIC (Salmonella typhi): 100 µg/mL (≈ 210 µM)
- IC50 (Plasmodium falciparum): 0.045 µg/mL (≈ 0.0944 µM)
- MIC (Clostridium tetani): 31.2 µg/mL (≈ 65.5 µM)
- MIC (Escherichia coli): 125 µg/mL (≈ 262 µM)
- MIC (Vibrio cholerae): 31.2 µg/mL (≈ 65.5 µM)
- MIC (Streptococcus pneumoniae): 62.5 µg/mL (≈ 131 µM)
- inhibition at 6 µg/mL [1]: 95%

Structure (SMILES): O=C(NN1C(=O)CCSC1c1ccc(Br)cc1)c1cnc2c(C(F)(F)F)cccc2c1O (centres undefined)
- MIC (Bacillus subtilis): 62.5 µg/mL (≈ 119 µM)
- MIC (Salmonella typhi): 31.2 µg/mL (≈ 59.4 µM)
- IC50 (Plasmodium falciparum): 0.018 µg/mL (≈ 0.0342 µM)
- MIC (Clostridium tetani): 31.2 µg/mL (≈ 59.4 µM)
- MIC (Escherichia coli): 125 µg/mL (≈ 237 µM)
- MIC (Vibrio cholerae): 62.5 µg/mL (≈ 119 µM)
- MIC (Streptococcus pneumoniae): 125 µg/mL (≈ 237 µM)
- inhibition at 6 µg/mL [1]: 98%

Structure (SMILES): O=C(NN1C(=O)CCSC1c1cccc(Cl)c1)c1cnc2c(C(F)(F)F)cccc2c1O (centres undefined)
- MIC (Bacillus subtilis): 125 µg/mL (≈ 259 µM)
- MIC (Salmonella typhi): 250 µg/mL (≈ 519 µM)
- IC50 (Plasmodium falciparum): 1.2 µg/mL (≈ 2.49 µM)
- MIC (Clostridium tetani): 250 µg/mL (≈ 519 µM)
- MIC (Escherichia coli): 125 µg/mL (≈ 259 µM)
- MIC (Vibrio cholerae): 250 µg/mL (≈ 519 µM)
- MIC (Streptococcus pneumoniae): 250 µg/mL (≈ 519 µM)
- inhibition at 6 µg/mL [1]: 71%

Structure (SMILES): O=C(NN1C(=O)CCSC1c1ccc(Cl)cc1)c1cnc2c(C(F)(F)F)cccc2c1O (centres undefined)
- MIC (Bacillus subtilis): 62.5 µg/mL (≈ 130 µM)
- MIC (Salmonella typhi): 250 µg/mL (≈ 519 µM)
- IC50 (Plasmodium falciparum): 0.067 µg/mL (≈ 0.139 µM)
- MIC (Clostridium tetani): 125 µg/mL (≈ 259 µM)
- MIC (Escherichia coli): 250 µg/mL (≈ 519 µM)
- MIC (Vibrio cholerae): 125 µg/mL (≈ 259 µM)
- MIC (Streptococcus pneumoniae): 250 µg/mL (≈ 519 µM)
- inhibition at 6 µg/mL [1]: 90%
